Patent publication US20080114055A1, “Thioxanthone Compounds to Reverse Weight Loss” (ZOLTAN LABORATORIES LLC, priority 2006, published 2008)

Key:
[1] = tested on: HL60 human leukemia tumor; test: HL60 human leukemia tumor model: body, total and tumor weight; assay type: in vivo, mice; conditions: for Body weight: total minus tumor weight
Description: Tumors were developed in a homozygous line of C.B.-171 cr scid/scid adult female mice kept at specified pathogen free (SPF) hygienic levels. Suspensions of HL-60 human leukemia cells (about 1,500,000 cells), or approximately 0.1 cm^3 volume of tumor tissue derived from HT-168 human melanoma, PC-3 human prostate adenocarcinoma, or T47D human breast carcinoma were implanted subcutaneously to develop the tumors. After 12-18 days when the tumor-bearing mice were first treated, the size of the tumors was in the 0.2-0.4 cm^3 range. CCcompound1 was dissolved in physiological (0.9%) saline (NaCl) and applied subcutaneously in 50 μl volume. Tumor volume was determined by calipers in three dimensions; this technique is well known to one having ordinary skill in the art. Tumor volume was calculated according to the generally accepted formula: V=a^2×b×π/6, where “a” and “b” mean the shortest and longest diameter, respectively, of the measured tumor. Tumor weight was calculated from tumor volume using a 0.7 (tumor weight) : 1 (tumor volume) ratio. Total weight and tumor volume/weight was measured regularly (at least every second day). In all tumor experiments, each treatment group consisted of five animals. Accordingly, all data are the average of five independent determinations (one determination for each animal). HL60 human tumors were developed in mice as described above. Treatments with CCcompound1 were started on day 18 after tumor implantation and conducted for the first five days and then for three days with two treatment-free days inserted between the two series of treatments. The results, shown in TABLE 2, indicate that between day 18 and 27 after tumor implantation, the leukemia tumor caused about 4-g loss in body weight.

[2] = tested on: PC-3 human prostate tumor; test: PC-3 human prostate cancer model: body, total and tumor weight; assay type: in vivo, mice; conditions: for Body weight: total minus tumor weight
Description: Tumors were developed in a homozygous line of C.B.-171 cr scid/scid adult female mice kept at specified pathogen free (SPF) hygienic levels. Suspensions of HL-60 human leukemia cells (about 1,500,000 cells), or approximately 0.1 cm^3 volume of tumor tissue derived from HT-168 human melanoma, PC-3 human prostate adenocarcinoma, or T47D human breast carcinoma were implanted subcutaneously to develop the tumors. After 12-18 days when the tumor-bearing mice were first treated, the size of the tumors was in the 0.2-0.4 cm^3 range. CCcompound1 was dissolved in physiological (0.9%) saline (NaCl) and applied subcutaneously in 50 μl volume. Tumor volume was determined by calipers in three dimensions; this technique is well known to one having ordinary skill in the art. Tumor volume was calculated according to the generally accepted formula: V=a^2×b×π/6, where “a” and “b” mean the shortest and longest diameter, respectively, of the measured tumor. Tumor weight was calculated from tumor volume using a 0.7 (tumor weight) : 1 (tumor volume) ratio. Total weight and tumor volume/weight was measured regularly (at least every second day). In all tumor experiments, each treatment group consisted of five animals. Accordingly, all data are the average of five independent determinations (one determination for each animal). PC-3 human tumors were developed in mice as described above. Treatments with CCcompound1 were started on day 12 after tumor implantation and conducted for five days and then for another three days with two treatment-free days inserted between the two series of treatments. The results, shown in TABLE 4, indicate that between day 12 and 21 after tumor implantation, the prostate tumor caused about 5.7-g loss in body weight which corresponds to about 22% reduction.

Water solubility = assay type: physicochemical; conditions: at the concentration used in vivo
[3] = tested on: HT-168 human melanoma tumor; test: HT-168 human melanoma model: body, total and tumor weight; assay type: in vivo, mice; conditions: for Body weight: total minus tumor weight
Description: Tumors were developed in a homozygous line of C.B.-171 cr scid/scid adult female mice kept at specified pathogen free (SPF) hygienic levels. Suspensions of HL-60 human leukemia cells (about 1,500,000 cells), or approximately 0.1 cm^3 volume of tumor tissue derived from HT-168 human melanoma, PC-3 human prostate adenocarcinoma, or T47D human breast carcinoma were implanted subcutaneously to develop the tumors. After 12-18 days when the tumor-bearing mice were first treated, the size of the tumors was in the 0.2-0.4 cm^3 range. CCcompound1 was dissolved in physiological (0.9%) saline (NaCl) and applied subcutaneously in 50 μl volume. Tumor volume was determined by calipers in three dimensions; this technique is well known to one having ordinary skill in the art. Tumor volume was calculated according to the generally accepted formula: V=a^2×b×π/6, where “a” and “b” mean the shortest and longest diameter, respectively, of the measured tumor. Tumor weight was calculated from tumor volume using a 0.7 (tumor weight) : 1 (tumor volume) ratio. Total weight and tumor volume/weight was measured regularly (at least every second day). In all tumor experiments, each treatment group consisted of five animals. Accordingly, all data are the average of five independent determinations (one determination for each animal). HT-168 human tumors were developed in mice as described above. Treatments with CCcompound1 were started on day 17 after tumor implantation and conducted for the first five days and then for another five days with two treatment-free days inserted between the two series of treatments. The results, shown in TABLE 3, indicate that between day 17 and 30 after tumor implantation, the melanoma tumor caused a 2.7-g loss in body weight.

T47D human breast tumor = test: T47D human estrogen receptor positive breast cancer model: body, total and tumor weight; assay type: in vivo, mice; conditions: for Body weight: total minus tumor weight
Description: Tumors were developed in a homozygous line of C.B.-171 cr scid/scid adult female mice kept at specified pathogen free (SPF) hygienic levels. Suspensions of HL-60 human leukemia cells (about 1,500,000 cells), or approximately 0.1 cm^3 volume of tumor tissue derived from HT-168 human melanoma, PC-3 human prostate adenocarcinoma, or T47D human breast carcinoma were implanted subcutaneously to develop the tumors. After 12-18 days when the tumor-bearing mice were first treated, the size of the tumors was in the 0.2-0.4 cm^3 range. CCcompound1 was dissolved in physiological (0.9%) saline (NaCl) and applied subcutaneously in 50 μl volume. Tumor volume was determined by calipers in three dimensions; this technique is well known to one having ordinary skill in the art. Tumor volume was calculated according to the generally accepted formula: V=a^2×b×π/6, where “a” and “b” mean the shortest and longest diameter, respectively, of the measured tumor. Tumor weight was calculated from tumor volume using a 0.7 (tumor weight) : 1 (tumor volume) ratio. Total weight and tumor volume/weight was measured regularly (at least every second day). In all tumor experiments, each treatment group consisted of five animals. Accordingly, all data are the average of five independent determinations (one determination for each animal). T47D human tumors were developed in mice as described above. Treatments with CCcompound1 were started on day 17 after tumor implantation and conducted for five days and then followed by an additional five days with 2 treatment-free days inserted between the 2 series of treatments. The results, shown in TABLE 5, indicate that between day 17 and 28 after tumor implantation, this breast tumor caused about a 2.5-g loss in body weight. […] Thus, in this human breast tumor model, CCcompound1 is a potent anti-cachectic agent and its effects on body weight are accompanied by significant anti-tumor effects.

[4] = 0.5 mg/kg s.c., day 18 (treatment start)
[5] = 1.0 mg/kg s.c., day 18 (treatment start)
[6] = 2.0 mg/kg s.c., day 18 (treatment start)
[7] = 1.0 mg/kg s.c., day 12 (treatment start)
[8] = 2.0 mg/kg s.c., day 12 (treatment start)
[9] = 4.0 mg/kg s.c., day 12 (treatment start)
[10] = 1.0 mg/kg s.c., day 17 (treatment start)
[11] = 1.0 mg/kg s.c., day 17 after tumor transplantation (treatment start)
[12] = 2.0 mg/kg s.c., day 17 (treatment start)
[13] = 4.0 mg/kg s.c., day 17 (treatment start)

- Water solubility (Water solubility): fully water-soluble
SMILES: Cc1c(OCC(O)C[N+](C)(C)C)cc2c(=O)c3ccccc3sc2c1C.[Cl-] (centres unmarked) [CCcompound1, [3-(3,4-Dimethyl-9-oxo-9H-thioxanthen-2-yloxy)-2-hydroxypropyl]trimethyl-ammonium chloride]
- Tumor weight [1, 4]: 0.7 g
- Body weight [1, 4]: 25.5 g
- Total weight ([1]; 0.5 mg/kg s.c., day 18 after tumor transplantation (treatment start)): 26.2 g
- Tumor weight ([1]; 0.5 mg/kg s.c., day 27): 2.8 g
- Body weight ([1]; 0.5 mg/kg s.c., day 27): 24.0 g
- Total weight ([1]; 0.5 mg/kg s.c., day 27 after tumor transplantation): 26.8 g
- Total weight [1, 5]: 26.2 g
- Tumor weight [1, 5]: 0.4 g
- Body weight [1, 5]: 25.8 g
- Total weight ([1]; 1.0 mg/kg s.c., day 27): 30.3 g
- Tumor weight ([1]; 1.0 mg/kg s.c., day 27): 1.9 g
- Body weight ([1]; 1.0 mg/kg s.c., day 27): 28.4 g
- Total weight [1, 6]: 27.0 g
- Tumor weight [1, 6]: 0.5 g
- Body weight [1, 6]: 26.5 g
- Total weight ([1]; 2.0 mg/kg s.c., day 27): 30.6 g
- Tumor weight ([1]; 2.0 mg/kg s.c., day 27): 1.9 g
- Body weight ([1]; 2.0 mg/kg s.c., day 27): 28.7 g
- Effect on body weight loss ([1]; 0.5-mg/kg, between day 18 and 27): reduced body weight loss
- Effect on body weight ([1]; 1-mg/kg, between day 18 and 27): gained weight
- Effect on body weight ([1]; 2-mg/kg, between day 18 and 27): gained weight
- Reduction of tumor weight ([1]; higher amounts of CCcompound1, day 27): about 45%
- Tumor weight [2, 7]: 0.4 g
- Body weight [2, 7]: 25.9 g
- Total weight ([2]; 1.0 mg/kg s.c., day 12 after tumor transplantation (treatment start)): 26.3 g
- Tumor weight ([2]; 1.0 mg/kg s.c., day 21): 2.2 g
- Body weight ([2]; 1.0 mg/kg s.c., day 21): 23.1 g
- Total weight ([2]; 1.0 mg/kg s.c., day 21 after tumor transplantation): 25.3 g
- Total weight [2, 8]: 26.1 g
- Tumor weight [2, 8]: 0.4 g
- Body weight [2, 8]: 25.7 g
- Total weight ([2]; 2.0 mg/kg s.c., day 21): 28.4 g
- Tumor weight ([2]; 2.0 mg/kg s.c., day 21): 1.9 g
- Body weight ([2]; 2.0 mg/kg s.c., day 21): 26.5 g
- Total weight [2, 9]: 26.9 g
- Tumor weight [2, 9]: 0.2 g
- Body weight [2, 9]: 26.7 g
- Total weight ([2]; 4.0 mg/kg s.c., day 21): 32.4 g
- Tumor weight ([2]; 4.0 mg/kg s.c., day 21): 1.4 g
- Body weight ([2]; 4.0 mg/kg s.c., day 21): 31.0 g
- Effect on body weight loss ([2]; 1-mg/kg, between day 12 and 21): only partially prevented body weight loss
- Body weight gain ([2]; 4-mg/kg, between day 12 and 21): 4.3 g
- Reduction of tumor weight ([2]; 4-mg/kg, day 21): about 48%
- Tumor weight [3, 10]: 0.2 g
- Body weight [3, 10]: 23.8 g
- Total weight [3, 11]: 24.0 g
- Tumor weight ([3]; 1.0 mg/kg s.c., day 30): 2.1 g
- Body weight ([3]; 1.0 mg/kg s.c., day 30): 25.5 g
- Total weight ([3]; 1.0 mg/kg s.c., day 30 after tumor transplantation): 27.6 g
- Total weight [3, 12]: 23.1 g
- Tumor weight [3, 12]: 0.2 g
- Body weight [3, 12]: 22.9 g
- Total weight ([3]; 2.0 mg/kg s.c., day 30): 25.8 g
- Tumor weight ([3]; 2.0 mg/kg s.c., day 30): 1.8 g
- Body weight ([3]; 2.0 mg/kg s.c., day 30): 24.0 g
- Total weight [3, 13]: 23.8 g
- Tumor weight [3, 13]: 0.2 g
- Body weight [3, 13]: 23.6 g
- Total weight ([3]; 4.0 mg/kg s.c., day 30): 29.6 g
- Tumor weight ([3]; 4.0 mg/kg s.c., day 30): 1.2 g
- Body weight ([3]; 4.0 mg/kg s.c., day 30): 28.4 g
- Effect on body weight loss ([3]; 1-mg/kg, between day 17 and 30): sufficient to reverse body weight loss
- Body weight gain ([3]; 4-mg/kg, between day 17 and 30): ~5 g
- Reduction of tumor weight ([3]; 4-mg/kg, day 30): more than 50%
- Tumor weight (T47D human breast tumor; [10]): 0.2 g
- Body weight (T47D human breast tumor; [10]): 26.3 g
- Total weight (T47D human breast tumor; [11]): 26.5 g
- Tumor weight (T47D human breast tumor; 1.0 mg/kg s.c., day 28): 1.6 g
- Body weight (T47D human breast tumor; 1.0 mg/kg s.c., day 28): 27.7 g
- Total weight (T47D human breast tumor; 1.0 mg/kg s.c., day 28 after tumor transplantation): 29.3 g
- Total weight (T47D human breast tumor; [12]): 26.9 g
- Tumor weight (T47D human breast tumor; [12]): 0.2 g
- Body weight (T47D human breast tumor; [12]): 26.7 g
- Total weight (T47D human breast tumor; 2.0 mg/kg s.c., day 28): 28.7 g
- Tumor weight (T47D human breast tumor; 2.0 mg/kg s.c., day 28): 1.5 g
- Body weight (T47D human breast tumor; 2.0 mg/kg s.c., day 28): 27.2 g
- Total weight (T47D human breast tumor; [13]): 27.0 g
- Tumor weight (T47D human breast tumor; [13]): 0.2 g
- Body weight (T47D human breast tumor; [13]): 26.8 g
- Total weight (T47D human breast tumor; 4.0 mg/kg s.c., day 28): 30.9 g
- Tumor weight (T47D human breast tumor; 4.0 mg/kg s.c., day 28): 1.2 g
- Body weight (T47D human breast tumor; 4.0 mg/kg s.c., day 28): 29.7 g
- Effect on body weight loss (T47D human breast tumor; 1-mg/kg, between day 17 and 28): fully reversed body weight loss
- Body weight gain (T47D human breast tumor; 4-mg/kg, between day 17 and 28): 3.1 g
- Reduction of tumor weight (T47D human breast tumor; 4-mg/kg, day 28): about 40%
